Values joined by “and” are separate entries in the source; they are usually repeats but may differ in a detail not shown here. Equal entries are not always repeated. Where two headings read alike, the source gives them in different places.
Tests used:
guinea pig ileum = test: tissue or blood; type: cell-based; details: for EC50: Cavia porcellus, read-out: ED50
[1] = pH 7
Human Eyes [2] = details: in vivo
Mice Eyes = details: mouse, in vivo
Human Eyes [3] = details: in vivo; remark: listed apart in the source
[4] = in vivo

In the case of CC(=O)OC1CN2CCC1CC2 (racemic) [(±) H Cl, 3-acetoxy-quinuclidine, reference compound], the “EPMR (Equipotent molar ratio)” value (guinea pig ileum) is reported as 20 and the EC50 (guinea pig ileum) is reported as 700 nM.

For CC(=O)OC1CN2CCC1CC2 (single isomer, unassigned; (+)) [(+) 3-acetoxy quinuclidine], the “stability of solutions on storage” value [1] was “no perceptible deterioration”.

With CC(=O)OC1CN2CCC1CC2 (single isomer, unassigned; (+)) [(+) H Cl, (+) 3-acetoxy quinuclidine] the ACh-like agonist strength (guinea pig ileum) was “strongest agonist”, the “Blockade of agonist effect by atropine” value (guinea pig ileum) was “blocked” and the “EPMR (Equipotent molar ratio)” value (guinea pig ileum) was 25. The “Pupil Diam.” value (Human Eyes [2]) was 4.5 mm and 3.0 mm and 3.5 mm, the “Time after which acute miosis developed” value (Mice Eyes) was 4 min and the Pupil Diameter (Human Eyes [3]) was 3.5 mm.

With CC(=O)OC1CN2CCC1CC2 (single isomer, unassigned; (-)) [(-) H Cl] the “EPMR (Equipotent molar ratio)” value (guinea pig ileum) was 100, the “Pupil Diameter” value (Human Eyes [2]) was 4.5 mm and 4.0 mm and 3.5 mm and 3.7 mm and 3.0 mm and 3.2 mm and 3.6 mm and the “Reversal of Mydriasis Time” value (Mice Eyes) was greater than 15 min.

CC(=O)OCC[N+](C)(C)C [Acetylcholine, reference compound] gave an EC50 (guinea pig ileum) of 30 nM.

In the case of CC[C@@H]1C(=O)OC[C@@H]1Cc1cncn1C [Pilocarpine], the Intraoccular pressure [4] is reported as 31 mmHg and 33 mmHg and 24 mmHg and 25 mmHg and 26 mmHg and 29 mmHg and 28 mmHg.

— patent US3997543A (priority 1974, dated 1976)
